Experimental data from EP0246774A1, “Chemical compounds” (SMITH KLINE & FRENCH LABORATORIES LIMITED, priority 1986, dated 1987).

Tested on: histamine stimulated gastric acid secretion
Test: Rat lumen perfused stomach, histamine stimulated gastric acid secretion (modified Ghosh and Schild procedure)
Type: in vivo
Settings: intravenous administration
Description: A. Rat : Lumen perfused stomach (histamine stimulated gastric acid secretion).
Using a modification of the procedure described by Ghosh and Schild (Br. J. Pharmacology, 13, 54, 1958), ED50 values after intravenous administration were obtained as follows: […]

SMILES	ED50 [µmol/kg]
COc1ccc2[nH]c([S+]([O-])Cc3nccc(N4CCOCC4)c3F)nc2c1 (stereo not shown) [Example 2, 5-methoxy-2-(4-morpholino-3-fluoro-2-pyridylmethylsulphinyl)-(lH)-benzimidazole]	0.7
COc1cc2[nH]c([S+]([O-])Cc3nccc(N4CCOCC4)c3F)nc2cc1C (stereo not shown) [Example 14, 5-methyl-6-methoxy-2-(4-morpholino-3-fluoro-2-pyridylmethylsulphinyl)-(lH)-benzimidazole]	1.51

Same assay, conditions: intravenous administration, dose not given

SMILES	% inhibition at µ/kg [%]
COc1ccc2[nH]c([S+]([O-])Cc3cc(N4CCOCC4)c(F)cn3)nc2c1 (stereo not shown) [Example 4, 5-methoxy-2-(4-morpholino-5-fluoro-2-pyridvlmethylsulphinyl)-(lH)-benzimidazole]	51
COc1ccc2[nH]c([S+]([O-])Cc3nccc(N(C)C)c3F)nc2c1 (stereo not shown) [Example 6, 5-methoxy-2-(4-dimethylamino-3-fluoro-2-pyridylmethylsulphinyl)-(1H)-benzimidazole]	26
COc1ccc2[nH]c([S+]([O-])Cc3cc(N(C)C)c(F)cn3)nc2c1 (stereo not shown) [Example 8, 5-methoxy-2-(4-dimethylamino-5-fluoro-2-pyridylmethylsulphinyl)-(1H)-benzimidazole]	37
COc1cc2nc([S+]([O-])Cc3nccc(N4CCOCC4)c3F)[nH]c2cc1OC (stereo not shown) [Example 12, 5,6-dimethoxy-2-(4-morpholino-3-fluoro-2-pyridylmethylsulphinvl)-(lH)-benzimidazole]	33
COc1cc2nc([S+]([O-])Cc3nccc(N(C)C)c3F)[nH]c2cc1OC (stereo not shown) [Example 16, 5,6-dimethoxy-2-(4-dimethylamino-3-fluoro-2-pyridylmethylsulphinyl)-(lH)-benzimidazole]	46
